Test results taken from patent publication US7439271B2, “Reduction of hair growth” (The Gillette Company, priority 2001, dated 2008).

Experiments:
flank organ hair growth = test: Golden Syrian hamster assay (flank organ hair mass); type: in vivo; conditions: topical, thirteen applications; for % Inhibition (hair mass reduction): vs vehicle treated side
From the text: Male intact Golden Syrian hamsters are considered acceptable models for human beard hair growth in that they display oval shaped flank organs, one on each side, each about 8 mm. in major diameter. These organs produce fine light colored hair typical of the animal pelage found on the body. In response to androgens the flank organs produce dark coarse hair similar to male human beard hair. To evaluate the effectiveness of a composition in reducing hair growth, the flank organs of each of a group of hamsters are depilated by applying a thioglycolate based chemical depilatory (Surgex) and/or shaved. To one organ of each animal 10 μl. of vehicle alone once a day is applied, while to the other organ of each animal an equal amount of vehicle containing the compound under evaluation is applied. After thirteen applications (one application per day for five days a week), the flank organs are shaved and the amount of recovered hair (hair mass) from each is weighed. Percent-reduction of hair growth is calculated by subtracting the hair mass (mg) value of the test compound treated side from the hair mass value of the vehicle treated side; the delta value obtained is then divided by the hair mass value of the vehicle treated side, and the resultant number is multiplied by 100.
The above-described assay will be referred to herein as the “Golden Syrian hamster” assay. Preferred compositions provide a reduction in hair growth of at least about 15% and more preferably at least about 20%, when tested in the Golden Syrian hamster assay. Compositions described in Example 1 (above) were tested in the Golden Syrian hamster assay. […] AZT, a well-characterized inhibitor of reverse transcriptase, inhibits telomerase by blocking the […] of the enzyme.

human hair follicles = test: Human hair follicle growth assay; type: cell-based; conditions: day 0 to day 6
From the text: Tissue source—Human skin was obtained from a plastic surgeon as a by-product of face-lift procedures. Immediately after removal, the skin was placed in Williams E medium containing antibiotics and refrigerated. The Williams E medium is a commercially obtained medium which has been formulated with essential nutrients for maintaining viability of tissues or cells such as of hair follicle in an in-vitro environment.
Hair Follicle Isolation and Culture—Human hair follicles in growth phase (anagen) were isolated from face-lift tissue under a dissecting scope using a scalpel and watchmakers forceps. The skin was sliced into thin strips exposing 2-3 rows of follicles that could readily be dissected. Follicles were placed into 0.5 ml Williams E medium supplemented with 2 mM L-glutamine, 10 μg/ml insulin, 100 ng/ml hydrocortisone, 100 units penicillin, 0.1 mg/ml streptomycin and 0.25 μg/ml amphotericin B. The follicles were incubated in 24 well plates (1 follicle/well) at 37° C. in an atmosphere of 5% CO2 and 95% air. Hair follicles were videorecorded in the 24-well plates under the dissecting scope under a power of 20×. Typically, hair follicle lengths were measured on day 0 (day follicles were placed in culture) and again on day 7. When testing compounds, the compound was included in the culture medium from time 0 and remained in the medium throughout the course of the experiment.
In this system follicle cells differentiate to form hair fiber and increase in length at a rate not dissimilar from that of humans, in vivo. Typically, hair fiber from these in-vitro follicles grow about 0.3 mm/day. […] This model of human hair growth is capable of identifying inhibitors of hair growth. The selective telomerase inhibitors -I, -IV and -V were obtained from Calbiochem, La Jolla, Calif. The data in Tables II-VI below show dose-dependent inhibition of human hair follicle growth by various compounds.

Row | Compound | Length Increase (mm) (human hair follicles; 100 μM) | % Inhibition of human hair growth (human hair follicles; 10 μM) | Length Increase (mm) (human hair follicles; 10 μM) | % Inhibition of human hair growth (human hair follicles; 100 μM) | also measured
1 | CC1COc2c(N3CCN(C)CC3)c(F)cc3c(=O)c(C(=O)O)cn1c23 (centres unmarked) [Ofloxacin, ofloxacin] | 1.16 ± .12 mm |  |  |  | Left (mg): hair mass for vehicle with test compound (flank organ hair growth; dose 5%): 1.56 ± .24 mg; % Inhibition (hair mass reduction) (flank organ hair growth; dose 5%): 39 ± 7%; Length Increase (mm) (human hair follicles; 0.01 μM): 1.51 ± .24 mm; Length Increase (mm) (human hair follicles; 0.1 μM): 1.16 ± .12 mm; Length Increase (mm) (human hair follicles; 1.0 μM, separate control 1.40 ± .17 mm): 0.43 ± .11 mm; inhibition at 0.01 µM (human hair follicles; Homo sapiens, 0.01 μM): 10 ± 14%; inhibition at 0.1 µM (human hair follicles; Homo sapiens, 0.1 μM): 30 ± 7%; inhibition at 1 µM (human hair follicles; Homo sapiens, 1.0 μM, separate control 1.40 ± .17 mm): 69 ± 8%; inhibition at 100 µM (human hair follicles; Homo sapiens, 100 μM): 31 ± 7%
2 | C[n+]1ccc(-c2c3nc(c(-c4cc[n+](C)cc4)c4ccc([nH]4)c(-c4cc[n+](C)cc4)c4nc(c(-c5cc[n+](C)cc5)c5ccc2[nH]5)C=C4)C=C3)cc1 [TMPyP4, meso-5,10,15,20-tetrakis-(N-methyl-4-pyridy)porphine] |  |  |  |  | Left (mg): hair mass for vehicle with test compound (flank organ hair growth; dose 1%): 1.73 ± .23 mg; % Inhibition (hair mass reduction) (flank organ hair growth; dose 1%): 28 ± 8%; % Inhibition of human hair growth (human hair follicles; 73 μM): 52 ± 9%; Length Increase (mm) (human hair follicles; 73 μM): .468 ± .09 mm
3 | O=C1c2ccc3c4ccc5c6c(ccc(c7ccc(c2c37)C(=O)N1CCN1CCCCC1)c64)C(=O)N(CCN1CCCCC1)C5=O [Telomerase Inhibitor IV, N,N′-bis[2-(1-piperidino)ethyl]-3,4,9,10-perylenetetracarboxylic diimide] | 0.80 ± .12 mm | 10 ± 10% | 1.39 ± .16 mm | 48 ± 8% | 
4 | C[N+]1(CCC(=O)Nc2ccc3c(c2)C(=O)c2ccc(NC(=O)CC[N+]4(C)CCCCC4CO)cc2C3=O)CCCCC1CO.[I-].[I-] (centres unmarked) [Telomerase Inhibitor I] | .286 ± .09 mm | 34 ± 6% | 1.18 ± .10 mm | 84 ± 5% | 
5 | O=C(CCN1CCCCC1)Nc1ccc2c(c1)C(=O)c1ccc(NC(=O)CCN3CCCCC3)cc1C2=O [Telomerase Inhibitor V, 2,6-bis[3-(N-piperidino)propionamido]anthracene-9,10-dione] | 0.25 ± .30 mm | 14 ± 8% | 1.32 ± .13 mm | 68 ± 19% | 
